Reference: patent publication US20250154169A1, “COMPOUNDS AND METHODS FOR MODULATING SPLICING” (REMIX THERAPEUTICS INC., priority 2021, published 2025)
Where two headings read alike, the source gives them in different places.

Key:
HTT mRNA = assay: Splicing RT-qPCR assay, HTT canonical (CJ) and alternative (AJ) junction mRNA; assay type: cell-based, human; settings: Homo sapiens, A673 or K562 cells, 24 hours compound treatment; for IC50: read-out: HTT CJ (IC50, decrease in canonical junction mRNA); for AC50: read-out: HTT AJ (AC50, increase in alternative junction mRNA)
In short: (§1)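 A673 or K562 cells were treated 24 h at 37 °C with an 11-point 3-fold compound dilution series (top 10 uM, DMSO ≤0.25%). Lysates went to one-step RT-qPCR measuring canonical (CJ) and alternative-exon (AJ) junction transcripts, normalized to GAPDH, GUSB or PPIA.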

MYB mRNA = assay: Splicing RT-qPCR assay, MYB canonical (CJ) and alternative (AJ) junction mRNA; assay type: cell-based, human; settings: Homo sapiens, A673 or K562 cells, 24 hours compound treatment, RT-qPCR; for AC50: read-out: MYB AJ (AC50, increase in alternative junction mRNA); for IC50: read-out: MYB CJ (IC50, decrease in canonical junction mRNA)
In short: as §1

Compound | IC50 (HTT mRNA; 24 h) [nM] | AC50 (HTT mRNA) [nM] | AC50 (MYB mRNA; 24 h) [nM] | IC50 (MYB mRNA; 24 h) [nM] | IC50 (HTT mRNA) [nM] | AC50 (MYB mRNA) [nM] | IC50 (MYB mRNA) [nM]
CCn1cc2c(N3CCNCC3)ccc(C(=O)Nc3cn4cc(C)nc4c(Cl)n3)c2n1 [Compound 604, N-{8-chloro-2-methylimidazo[1,2-a]pyrazin-6-yl}-2-ethyl-4-(piperazin-1-yl) indazole-7-carboxamide] | > 10000 | > 10000 | 1000 to 10000 | 1000 to 10000 |  |  | 
Cc1cn2cc(NC(=O)c3ccc(N4CCN[C@@H](C5CC5)C4)c4cn(C)nc34)cc(F)c2n1 [Compound 606, 4-[(3S)-3-cyclopropylpiperazin-1-yl]-N-{8-fluoro-2-methylimidazo[1,2-a]pyridin-6-yl}-2-methylindazole-7-carboxamide] | 100 to 1000 | 1000 to 10000 | 100 to 1000 | 100 to 1000 |  |  | 
Cc1cn2cc(NC(=O)c3ccc(N4CCN[C@H](C5CC5)C4)c4cn(C)nc34)cc(F)c2n1 [Compound 607, 4-[(3R)-3-cyclopropylpiperazin-1-yl]-N-{8-fluoro-2-methylimidazo[1,2-a]pyridin-6-yl}-2-methylindazole-7-carboxamide] | 1000 to 10000 | 1000 to 10000 | 100 to 1000 | 100 to 1000 |  |  | 
CN[C@@H]1CCN(c2ccc(C(=O)Nc3cn4cc(C)nc4c(Oc4ccccc4)n3)c3nn(C)cc23)C1 [Compound 610, 2-methyl-N-{2-methyl-8-phenoxyimidazo[1,2-a]pyrazin-6-yl}-4-[(3R)-3-(methylamino)pyrrolidin-1-yl]indazole-7-carboxamide] | > 10000 | 1000 to 10000 | 100 to 1000 | 100 to 1000 |  |  | 
CN[C@@H]1CCN(c2ccc(C(=O)Nc3cn4cc(C)nc4c(N4CCOCC4)n3)c3nn(C)cc23)C1 [Compound 612, 2-methyl-N-[2-methyl-8-(morpholin-4-yl)imidazo[1,2-a]pyrazin-6-yl]-4-[(3R)-3-(methylamino)pyrrolidin-1-yl]indazole-7-carboxamide] | > 10000 | > 10000 | > 10000 | > 10000 |  |  | 
CN[C@@H]1CCN(c2ccc(C(=O)Nc3cn4cc(C)nc4c(Cl)n3)c3nn(C)cc23)C1 [Compound 614] | > 10000 | > 10000 | 100 to 1000 | 100 to 1000 |  |  | 
CCn1cc2c(N3C[C@@H](C)N[C@@H](C4CC4)C3)ccc(C(=O)Nc3cc(F)c4nc(C)cn4c3)c2n1 [Compound 616, 4-((3S,5R)-3-cyclopropyl-5-methylpiperazin-1-yl)-2-ethyl-N-(8-fluoro-2-methylimidazo[1,2-a]pyridin-6-yl)-2H-indazole-7-carboxamide] | 100 to 1000 | 1000 to 10000 | 100 to 1000 | 100 to 1000 |  |  | 
CCn1cc2c(N3C[C@@H](C4CC4)N[C@@H](C)C3)ccc(C(=O)Nc3cc(F)c4nc(C)cn4c3)c2n1 [Compound 617, 4-((3R,5S)-3-cyclopropyl-5-methylpiperazin-1-yl)-2-ethyl-N-(8-fluoro-2-methylimidazo[1,2-a]pyridin-6-yl)-2H-indazole-7-carboxamide] | 1000 to 10000 | > 10000 | 1000 to 10000 | 100 to 1000 |  |  | 
CCn1cc2c(N3CC[C@@H](N(C)C)C3)cc(Cl)c(C(=O)Nc3cc(F)c4nc(C)cn4c3)c2n1 [Compound 619, 6-chloro-4-[(3R)-3-(dimethylamino)pyrrolidin-1-yl]-2-ethyl-N-{8-fluoro-2-methylimidazo[1,2-a]pyridin-6-yl}indazole-7-carboxamide] | > 10000 | > 10000 | 100 to 1000 | 100 to 1000 |  |  | 
Cc1cn2cc(NC(=O)c3ccc(N4CC[C@@H](N5C[C@@H](C)N[C@@H](C)C5)C4)c4cn(C)nc34)cc(F)c2n1 [Compound 621, 4-[(3R)-3-[(3R,5S)-3,5-dimethylpiperazin-1-yl]pyrrolidin-1-yl]-N-{8-fluoro-2-methylimidazo[1,2-a]pyridin-6-yl}-2-methylindazole-7-carboxamide] | > 10000 | > 10000 | 100 to 1000 | 1000 to 10000 |  |  | 
Cc1cn2cc(NC(=O)c3ccc(N4CCC(N5C6CNCC65)C4)c4cn(C)nc34)cc(F)c2n1 (stereo not shown) [Compound 622, 4-(3-{3,6-diazabicyclo[3.1.0]hexan-6-yl}pyrrolidin-1-yl)-N-{8-fluoro-2-methylimidazo[1,2-a]pyridin-6-yl}-2-methylindazole-7-carboxamide] |  | > 10000 |  |  | > 10000 | > 10000 | 1000 to 10000
CN[C@@H]1CCN(c2ccc(C(=O)Nc3nc(OC)c4nn(C)cc4n3)c3nn(C)cc23)C1 [Compound 624, N-{7-methoxy-2-methylpyrazolo[4,3-d]pyrimidin-5-yl}-2-methyl-4-[(3R)-3-(methylamino)pyrrolidin-1-yl]indazole-7-carboxamide] | 1000 to 10000 | 1000 to 10000 | 1000 to 10000 | 1000 to 10000 |  |  | 
CN[C@@H]1CCN(c2ccc(C(=O)Nc3cn4cc(C)nc4c(OC4CC4)n3)c3nn(C)cc23)C1 [Compound 626, N-{8-cyclopropoxy-2-methylimidazo[1,2-a]pyrazin-6-yl}-2-methyl-4-[(3R)-3-(methylamino)pyrrolidin-1-yl]indazole-7-carboxamide] | 1000 to 10000 | 1000 to 10000 | 100 to 1000 | 100 to 1000 |  |  | 
CCn1cc2c(N3CCC(NC4CC4)CC3)cc(Cl)c(C(=O)Nc3cc(F)c4nc(C)cn4c3)c2n1 [Compound 627] | 1000 to 10000 | 1000 to 10000 | 100 to 1000 | 100 to 1000 |  |  | 
Cc1cn2cc(NC(=O)c3ccc(N4CCC(N5C6COCC65)C4)c4cn(C)nc34)cc(F)c2n1 (stereo not shown) [Compound 629] |  | 1000 to 10000 |  |  | 1000 to 10000 | 1000 to 10000 | 1000 to 10000
CNc1nc(NC(=O)c2ccc(N3CC[C@@H](NC)C3)c3cn(C)nc23)cn2cc(C)nc12 [Compound 631, 2-methyl-N-[2-methyl-8-(methylamino)imidazo[1,2-a]pyrazin-6-yl]-4-[(3R)-3-(methylamino)pyrrolidin-1-yl]indazole-7-carboxamide] | > 10000 | > 10000 | 1000 to 10000 | 1000 to 10000 |  |  | 
Cc1cn2cc(NC(=O)c3ccc(N4CC[C@@H](NC5C6COCC65)C4)c4cn(C)nc34)cc(F)c2n1 (stereo partly shown) [Compound 633] | 1000 to 10000 | > 10000 | 100 to 1000 | 100 to 1000 |  |  | 
CCn1cc2c(N3CC[C@@H](NC)C3)cc(O)c(C(=O)Nc3cc(F)c4nc(C)cn4c3)c2n1 [Compound 635] | > 10000 | > 10000 | 1000 to 10000 | 100 to 1000 |  |  | 
CCn1cc2c(N3CC[C@@H](N(C)C)C3)cc(O)c(C(=O)Nc3cc(F)c4nc(C)cn4c3)c2n1 [Compound 637] | 1000 to 10000 | 1000 to 10000 | 1000 to 10000 | 100 to 1000 |  |  | 
Cc1cn2cc(NC(=O)c3ccc(N4CC[C@@H](NCC5(O)CC5)C4)c4cn(C)nc34)cc(F)c2n1 [Compound 639] | > 10000 | > 10000 | 100 to 1000 | 100 to 1000 |  |  | 
CCC(=O)CN[C@@H]1CCN(c2ccc(C(=O)Nc3cc(F)c4nc(C)cn4c3)c3nn(C)cc23)C1 [Compound 641] | 1000 to 10000 | 1000 to 10000 | < 100 | < 100 |  |  | 
Cc1cn2cc(NC(=O)c3ccc(N4CC[C@@H](NC5(CO)CC5)C4)c4cn(C)nc34)cc(F)c2n1 [Compound 643] | > 10000 | > 10000 | 100 to 1000 | 100 to 1000 |  |  | 
